Molecular target: Acetylcholinesterase (Homo sapiens, UniProt P22303)
Assay: Compound was tested for the in silico inhibition of acetylcholinesterase

Acetylcholinesterase, sequence (P22303 whole entry): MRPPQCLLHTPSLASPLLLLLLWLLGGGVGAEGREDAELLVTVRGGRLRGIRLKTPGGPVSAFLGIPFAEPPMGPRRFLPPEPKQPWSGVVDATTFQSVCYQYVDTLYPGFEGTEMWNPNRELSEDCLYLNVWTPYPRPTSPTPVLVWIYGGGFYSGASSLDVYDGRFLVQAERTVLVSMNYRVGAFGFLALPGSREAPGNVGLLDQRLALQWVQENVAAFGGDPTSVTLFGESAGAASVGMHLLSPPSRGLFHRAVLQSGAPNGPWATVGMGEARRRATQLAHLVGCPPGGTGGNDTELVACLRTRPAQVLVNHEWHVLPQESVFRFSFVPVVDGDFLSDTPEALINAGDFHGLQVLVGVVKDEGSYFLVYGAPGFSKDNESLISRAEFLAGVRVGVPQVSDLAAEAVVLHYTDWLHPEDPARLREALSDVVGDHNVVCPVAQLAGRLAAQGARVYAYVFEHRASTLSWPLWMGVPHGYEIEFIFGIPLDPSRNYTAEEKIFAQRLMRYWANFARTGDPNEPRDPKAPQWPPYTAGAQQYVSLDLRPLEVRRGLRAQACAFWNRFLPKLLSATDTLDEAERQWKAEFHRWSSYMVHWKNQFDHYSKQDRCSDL

CC(=O)N(C)[C@@H](C)[C@H]1CC[C@H]2[C@@H]3CC[C@H]4C[C@@H](N(C)C)CC[C@]4(C)[C@H]3CC[C@]12C and CC(=O)N(C)[C@H]1CC[C@@]2(C)[C@@H](CC[C@@H]3[C@@H]2CC[C@]2(C)[C@@H]([C@H](C)N(C)C)CC[C@@H]32)C1 are within 1.5-fold of each other in IC50: 50.1 µM for the first, 70.8 µM for the second.

Compared with C/C=C(\C)C(=O)NC1=CC[C@@]2(C)[C@@H](CC[C@H]3C4CC[C@H]([C@H](C)N(C)C)[C@@]4(C)CC[C@@H]32)C1=O (stereo not given in full), C[C@@H]([C@H]1CC[C@H]2[C@@H]3CC[C@H]4C(=O)C(NC(=O)c5ccccc5)=CC[C@]4(C)[C@H]3CC[C@]12C)N(C)C is 2.6-fold lower in IC50: 13.8 µM for the first, 5.25 µM for the second.

C/C=C(\C)C(=O)N[C@@H]1C=C2CC[C@H]3C4=CC[C@H]([C@H](C)N(C)C)[C@@]4(C)CC[C@@H]3[C@@]2(C)CC1 and C/C=C(\C)C(=O)N[C@H]1CC[C@@]2(C)C(=CC[C@H]3C4=CC[C@H]([C@H](C)N(C)C)[C@@]4(C)CC[C@@H]32)C1=O are within 1.5-fold of each other in IC50: 7.76 µM for the first, 5.75 µM for the second.

C[C@H](NC=O)[C@H]1CC[C@H]2[C@@H]3CC[C@H]4C[C@@H](N(C)C)CC[C@]4(C)[C@H]3CC[C@]12C and CN[C@H]1CC[C@@]2(C)C(CC[C@H]3[C@@H]4CC[C@H]([C@H](C)N(C)C)[C@@]4(C)CC[C@@H]32)C1 (stereo not given in full) are within 1.5-fold of each other in IC50: 6.46 µM for the first, 6.17 µM for the second.

Compared with CN[C@@H](C)C1=CC[C@H]2[C@@H]3CC=C4C[C@@H](OC)CC[C@]4(C)[C@H]3CC[C@]12C, CO[C@H]1CC[C@@]2(C)C(=CC[C@@H]3[C@@H]2CC[C@]2(C)C([C@H](C)N(C)C=O)=CC[C@@H]32)C1 is 1.7-fold lower in IC50: 83.2 µM for the first, 49 µM for the second. The second is the more potent here.

First: CO[C@@H]1CC2=CC[C@@H]3[C@H](CC[C@]4(C)C([C@H](C)N(C)C)=CC[C@@H]34)[C@@]2(C)C[C@@H]1O
Second: CO[C@H]1CC[C@@]2(C)C(=CC[C@H]3[C@@H]4CC[C@H]([C@H](C)N(C)C)[C@@]4(C)CC[C@@H]32)C1
The IC50 of the first is 5.9-fold higher: 251 µM for the first, 42.7 µM for the second.

Compared with CC(=O)N(C)[C@@H](C)[C@H]1CC[C@H]2[C@@H]3CC=C4C[C@@H](N(C)C)CC[C@]4(C)[C@H]3CC[C@]12C, C[C@@H]([C@H]1CC[C@H]2[C@@H]3CC=C4C[C@@H](N(C)C)CC[C@]4(C)[C@H]3CC[C@]12C)N(C)C is 2-fold higher in IC50: 20 µM for the first, 39.8 µM for the second. The first is the more potent here.

Compared with CN[C@H]1CC[C@@]2(C)[C@@H](CC[C@@H]3[C@@H]2CC[C@]2(C)C([C@H](C)N(C)C)=CC[C@@H]32)C1, C/C(=C\C(=O)N(C)[C@H]1CC[C@@]2(C)[C@@H](CC[C@@H]3[C@@H]2CC[C@]2(C)C([C@H](C)N(C)C)=CC[C@@H]32)C1)C(C)C is 3.3-fold lower in IC50: 20.4 µM for the first, 6.17 µM for the second. The second is the more potent here.

First: C/C=C(\C)C(=O)N[C@@H]1C=C2CC[C@H]3[C@@H]4CC[C@H]([C@H](C)N(C)C)[C@@]4(C)CC[C@@H]3[C@@]2(C)C[C@@H]1O
Second: C/C=C(\C)C(=O)N[C@H]1CC[C@@]2(C)C(=CC[C@H]3[C@@H]4CC[C@H]([C@H](C)N(C)C)[C@@]4(C)CC[C@@H]32)[C@H]1O
The IC50 of the first is 1.9-fold lower: 15.8 µM for the first, 30.2 µM for the second.

First: CC(=O)O[C@@H]1C2CC[C@H]3C4CC=C([C@H](C)N(C)C)[C@@]4(C)CC[C@@H]3[C@@]2(C)CC[C@@H]1NC(=O)C=C(C)C (stereo not given in full)
Second: C/C=C(\C)C(=O)N[C@H]1C(OC(C)=O)C[C@@]2(C)C(CC[C@H]3C4CC=C([C@H](C)N(C)C)[C@@]4(C)CC[C@@H]32)[C@H]1OC(C)=O (stereo not given in full)
The IC50 of the first is 9.5-fold lower: 5.25 µM for the first, 50.1 µM for the second.

Compared with C/C=C(\C)C(=O)N[C@@H]1[C@H](O)C2CC[C@H]3C4=CC[C@H]([C@H](C)N(C)C)[C@@]4(C)CC[C@@H]3[C@@]2(C)C[C@@H]1O (stereo not given in full), C/C=C(\C)C(=O)N[C@@H]1[C@H](OC(C)=O)[C@@H]2CC[C@H]3C4=CC[C@H]([C@H](C)N(C)C)[C@@]4(C)CC[C@@H]3[C@@]2(C)C[C@@H]1O is 1.9-fold higher in IC50: 33.1 µM for the first, 61.7 µM for the second. The first is the more potent here.

Going from C[C@@H]([C@H]1CC[C@H]2[C@@H]3CC[C@H]4C[C@@H](NC(=O)c5ccccc5)[C@@H](O)C[C@]4(C)[C@H]3CC[C@]12C)N(C)C to C[C@@H]([C@H]1CC[C@H]2[C@@H]3CC[C@H]4C[C@@H](NC(=O)c5ccccc5)CC[C@]4(C)[C@H]3CC[C@]12C)N(C)C [EPIPACHYSAMINE D], the IC50 falls from 77.6 µM to 28.8 µM (2.7-fold). The second is the more potent here.

Compared with C/C=C(\C)C(=O)N[C@H]1CC[C@@]2(C)C(=CC[C@H]3[C@@H]4CC[C@H]([C@H](C)N(C)C)[C@@]4(C)CC[C@@H]32)C1=O, C/C=C(\C)C(=O)N[C@@H]1[C@H](OC(C)=O)[C@@H]2CC[C@@H]3[C@H](CC[C@]4(C)[C@@H]([C@H](C)N(C)C)CC[C@@H]34)[C@@]2(C)C[C@@H]1O is 26-fold higher in IC50: 7.08 µM for the first, 182 µM for the second. The first is the more potent here.

Compared with C/C(=C\C(=O)N(C)[C@H]1CC[C@@]2(C)[C@@H](CC[C@@H]3[C@@H]2CC[C@]2(C)[C@@H]([C@H](C)N(C)C)CC[C@@H]32)C1)C(C)C, CC(=O)N[C@H]1CC[C@@]2(C)[C@@H](CC[C@@H]3[C@@H]2CC[C@]2(C)[C@@H]([C@H](C)N(C)C)CC[C@@H]32)C1 is 11-fold higher in IC50: 6.46 µM for the first, 69.2 µM for the second. The first is the more potent here.

First: CC(=O)O[C@H]1[C@@H](NC(=O)c2ccccc2)[C@@H](O)C[C@]2(C)[C@H]3CC[C@]4(C)[C@@H]([C@H](C)N(C)C)CC[C@H]4[C@@H]3CC[C@@H]12
Second: C[C@@H]([C@H]1CC[C@H]2[C@@H]3CC[C@H]4C[C@@H](N(C)C(=O)/C=C/c5ccccc5)CC[C@]4(C)[C@H]3CC[C@]12C)N(C)C [SALIGCINNAMIDE]
The IC50 of the first is 12-fold higher: 229 µM for the first, 19.5 µM for the second.
